Reference: ChEMBL document CHEMBL1201862, “PubChem BioAssay data set” (2004)
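Results reflect a 48-hour exposure of cells in 96-well plates to compound at five concentrations. GI50 marks 50% less growth.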 The source made the active and inactive calls. No stated cut-off is given here; in the data, active = GI50 up to about 1.1 µM and inactive = higher.

Assays:
Assay in all cases: NCI tumour cell line growth inhibition, 48 h
OVCAR-8 = tested on: OVCAR-8
SR = tested on: SR
UACC-62 = tested on: UACC-62
KM-20L2 = tested on: KM-20L2
SK-OV-3 = tested on: SK-OV-3
SNB-19 = tested on: SNB-19
A498 = tested on: A498
HT-29 = tested on: HT-29
HOP-62 = tested on: HOP-62
RXF 393 = tested on: RXF 393
Malme-3M = tested on: Malme-3M
SN12C = tested on: SN12C
EKVX = tested on: EKVX
HL-60 = tested on: HL-60
NCI-H460 = tested on: NCI-H460
OVCAR-3 = tested on: OVCAR-3
CAKI-1 = tested on: CAKI-1

Structure (SMILES) | GI50 (OVCAR-8) | GI50 (SR) | GI50 (UACC-62) | GI50 (KM-20L2) | GI50 (SK-OV-3) | GI50 (SNB-19) | GI50 (A498) | GI50 (HT-29) | GI50 (HOP-62) | GI50 (RXF 393) | GI50 (Malme-3M) | GI50 (SN12C) | GI50 (EKVX) | GI50 (HL-60) | GI50 (NCI-H460) | GI50 (OVCAR-3) | GI50 (CAKI-1)
CCCCC1(OC(=O)CCC(=O)O)CCC2(CCC(C)C(C/C=C(C)/C=C/C(O)C(C)/C=C/C(=O)O)O2)OC1CC/C(C)=C/C(=O)O (configuration not stated) | 2.84 µM (inactive) | 3.04 µM (inactive) | 0.971 µM (active) | 10.9 µM (inactive) | 6.17 µM (inactive) | 3.11 µM (inactive) | 3.26 µM (inactive) | 10.3 µM (inactive) | 2.09 µM (inactive) | 1.75 µM (inactive) | 7.73 µM (inactive) | 2.77 µM (inactive) | 5.2 µM (inactive) | 4.57 µM (inactive) | 6.18 µM (inactive) | 2.64 µM (inactive) | 4.14 µM (inactive)
Cc1cccc(N2C(=O)C(Cl)=C(Cl)C2=O)c1 | > 100 µM (inactive) | 18.2 µM (inactive) | > 64.7 µM (inactive) | > 100 µM (inactive) | > 100 µM (inactive) | > 100 µM (inactive) | > 100 µM (inactive) | > 62.2 µM (inactive) | > 100 µM (inactive) | 16.5 µM (inactive) | > 42.1 µM (inactive) | > 80.5 µM (inactive) | > 74 µM (inactive) | > 100 µM (inactive) | > 100 µM (inactive) | > 50.6 µM (inactive) | > 42.3 µM (inactive)
COC(=N)/C(=C1\OC(=N)C(c2ccc(Cl)cc2)=C1O)c1ccc(Cl)cc1 | > 100 µM (inactive) | > 100 µM (inactive) | > 100 µM (inactive) | > 100 µM (inactive) | > 100 µM (inactive) | > 100 µM (inactive) | > 100 µM (inactive) | > 100 µM (inactive) | > 100 µM (inactive) | > 100 µM (inactive) | > 100 µM (inactive) | > 100 µM (inactive) | > 100 µM (inactive) | 81.7 µM (inactive) | > 100 µM (inactive) | > 100 µM (inactive) | > 100 µM (inactive)
CCSc1nc2n(c(=S)n1)CCN2C | 20.7 µM (inactive) | 7.67 µM (inactive) | 12.1 µM (inactive) | 20 µM (inactive) | 21 µM (inactive) | 20.6 µM (inactive) | 19.3 µM (inactive) | 17.4 µM (inactive) | 28.6 µM (inactive) | 7.89 µM (inactive) | 17.1 µM (inactive) | 19.6 µM (inactive) | 28.4 µM (inactive) | 16.4 µM (inactive) | 21.1 µM (inactive) | 20 µM (inactive) | 13.5 µM (inactive)
O=C(CC(=O)c1ccccc1)C(=O)NC12CC3CC(CC(C3)C1)C2 | > 100 µM (inactive) | > 100 µM (inactive) | > 100 µM (inactive) | > 75.7 µM (inactive) | > 100 µM (inactive) | > 100 µM (inactive) | > 100 µM (inactive) | > 100 µM (inactive) | > 100 µM (inactive) | > 31.9 µM (inactive) | > 100 µM (inactive) | > 100 µM (inactive) | > 100 µM (inactive) | > 48.5 µM (inactive) | > 40.7 µM (inactive) | > 100 µM (inactive) | > 100 µM (inactive)
CCOc1cc2c(C(=O)CC)c(O)ccc2o1 | > 79.6 µM (inactive) | 33.7 µM (inactive) | > 37.6 µM (inactive) | > 100 µM (inactive) | > 48.1 µM (inactive) | > 100 µM (inactive) | > 52.7 µM (inactive) | 39 µM (inactive) | > 100 µM (inactive) | > 45.1 µM (inactive) | > 100 µM (inactive) | > 100 µM (inactive) | > 100 µM (inactive) | 12.9 µM (inactive) | > 100 µM (inactive) | > 100 µM (inactive) | > 100 µM (inactive)
